The source of these data is publication PMC9874818 (Archiv Der Pharmazie, 2022).

Starred links: 1 amine or outer side, 2 acyl side, 3 side chain; linkers in the order of their positions; H or OH if unused. Residues, ends and D or L forms follow the SMILES beside them. CO = O=C([*:1])[*:2]

The conditions of data set [1]: cited from earlier work.
Data set [2] has as its target TMPRSS2 (human recombinant) (Homo sapiens, UniProt O15393). The format is biochemical. To be noted: ratio of IC50 values.
The target of data set [3] is CATSL (human liver) (Homo sapiens, UniProt P07711). Description: biochemical.
Data set [4] deals with CATSB (human liver) (Homo sapiens, UniProt P07858). Description: biochemical.
Data set [5] concerns the target Furin (human recombinant aa108–715) (Homo sapiens, UniProt P09958). Description: biochemical.

Sequence of CATSL (human liver) (P07711 114-333): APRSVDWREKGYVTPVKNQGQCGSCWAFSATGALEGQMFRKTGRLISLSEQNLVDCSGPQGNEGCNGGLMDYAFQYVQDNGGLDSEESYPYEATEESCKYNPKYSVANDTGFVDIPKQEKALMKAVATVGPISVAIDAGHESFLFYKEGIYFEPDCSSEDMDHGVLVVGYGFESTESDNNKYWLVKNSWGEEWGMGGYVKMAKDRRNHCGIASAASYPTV
Sequence of Furin (human recombinant aa108–715) (P09958 108-715): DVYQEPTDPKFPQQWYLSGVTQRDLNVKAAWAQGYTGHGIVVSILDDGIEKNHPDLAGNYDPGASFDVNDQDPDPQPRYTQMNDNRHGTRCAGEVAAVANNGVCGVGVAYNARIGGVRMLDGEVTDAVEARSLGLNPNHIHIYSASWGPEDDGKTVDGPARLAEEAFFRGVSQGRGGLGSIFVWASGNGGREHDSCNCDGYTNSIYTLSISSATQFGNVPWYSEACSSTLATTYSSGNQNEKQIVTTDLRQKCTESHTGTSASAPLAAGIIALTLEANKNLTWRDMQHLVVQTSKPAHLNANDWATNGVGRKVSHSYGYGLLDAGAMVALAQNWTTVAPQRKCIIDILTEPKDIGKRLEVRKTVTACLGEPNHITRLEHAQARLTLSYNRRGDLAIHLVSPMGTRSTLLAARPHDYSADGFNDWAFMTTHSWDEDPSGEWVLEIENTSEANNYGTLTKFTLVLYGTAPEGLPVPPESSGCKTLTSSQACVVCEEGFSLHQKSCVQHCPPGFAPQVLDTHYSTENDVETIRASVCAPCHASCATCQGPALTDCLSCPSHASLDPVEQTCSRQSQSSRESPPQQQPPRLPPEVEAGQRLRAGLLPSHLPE
Sequence of TMPRSS2 (human recombinant) (O15393 whole entry): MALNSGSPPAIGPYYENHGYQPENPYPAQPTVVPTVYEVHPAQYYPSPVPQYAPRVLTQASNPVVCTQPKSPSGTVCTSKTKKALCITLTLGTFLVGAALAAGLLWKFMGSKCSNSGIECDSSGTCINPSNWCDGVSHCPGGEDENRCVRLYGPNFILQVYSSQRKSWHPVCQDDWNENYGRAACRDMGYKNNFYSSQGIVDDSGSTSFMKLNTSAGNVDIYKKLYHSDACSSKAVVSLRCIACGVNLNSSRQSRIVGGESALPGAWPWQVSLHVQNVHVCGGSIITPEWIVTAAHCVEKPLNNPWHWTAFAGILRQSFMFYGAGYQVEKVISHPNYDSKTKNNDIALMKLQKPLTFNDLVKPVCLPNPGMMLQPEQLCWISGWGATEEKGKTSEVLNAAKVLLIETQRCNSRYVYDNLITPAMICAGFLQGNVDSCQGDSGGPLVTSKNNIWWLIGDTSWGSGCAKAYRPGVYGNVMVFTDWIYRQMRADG

In the case of `CN(C)C(=O)COC(=O)Cc1ccc(OC(=O)c2ccc(NC(=N)N)cc2)cc1` [camostat], the plasma half-life entry in data set [1] was “approximately an hour or less”.

Regarding `CC(C)[C@H](NC(=O)[C@H](CCCNC(=N)N)NC(=O)N[C@@H](Cc1ccccc1)C(=O)O)C(=O)N[C@H](C=O)CCCNC(=N)N` [antipain, L‐Phe‐CO‐L‐Arg‐L‐Val‐L‐Arg‐H] ({Phe-CO}-Arg-Val-Arg-aldehyde), the “increase in TMPRSS2 potency over BC-11” value in data set [2] is 2 fold. Besides, the results for the IC50 in data set [3], in data set [4] and in data set [5] were 0.00274 µM, 0.0241 µM and 4.17 µM, respectively.

With `N=C(N)c1ccc2cc(OC(=O)c3ccc(N=C(N)N)cc3)ccc2c1` [nafamostat], the plasma half-life result in data set [1] is on record as “approximately an hour or less”.
